Data on 1 compound can be found in article PMC11758394, “VCP downstream metabolite glycerol-3-phosphate (G3P) inhibits CD8^+T cells function in the HCC microenvironment” (Signal Transduction and Targeted Therapy, 2025).

Experiment [1] deals with T1, region LCK(240-509AAs) (Homo sapiens, UniProt P06239).
T1 construct: purified fragment 240-509 (kinase domain)
The experiment can be described thus: SPR (Biacore 8K, protein on CM5 chip); also ITC. The following applies: PBS; value not in text; binding of this fragment inferred because it contains 330-509. In general terms: SPR reads the build-up and loss of mass on a sensor chip optically.

The target in experiment [2] is T2, LCK (Homo sapiens, UniProt P06239).
T2 construct: purified full-length LCK
T2 sequence (P06239 whole entry): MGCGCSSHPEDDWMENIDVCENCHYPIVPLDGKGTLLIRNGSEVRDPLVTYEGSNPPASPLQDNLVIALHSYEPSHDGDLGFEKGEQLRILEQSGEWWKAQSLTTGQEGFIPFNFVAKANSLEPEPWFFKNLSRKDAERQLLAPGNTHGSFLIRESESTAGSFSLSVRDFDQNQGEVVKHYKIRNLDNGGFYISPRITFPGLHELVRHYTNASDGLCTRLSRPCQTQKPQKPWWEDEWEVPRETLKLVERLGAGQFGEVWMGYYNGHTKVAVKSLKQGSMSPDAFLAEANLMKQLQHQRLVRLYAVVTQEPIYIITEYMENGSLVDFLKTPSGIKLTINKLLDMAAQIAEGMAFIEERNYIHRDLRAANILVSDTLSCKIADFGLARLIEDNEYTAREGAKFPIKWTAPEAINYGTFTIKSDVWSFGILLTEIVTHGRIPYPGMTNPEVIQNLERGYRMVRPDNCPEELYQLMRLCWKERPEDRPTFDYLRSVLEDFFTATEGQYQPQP
The experiment can be described thus: SPR (Biacore 8K, protein on CM5 chip); also ITC. In kind it is binding. The following applies: PBS; value not in text.

T1 sequence (P06239 240-509): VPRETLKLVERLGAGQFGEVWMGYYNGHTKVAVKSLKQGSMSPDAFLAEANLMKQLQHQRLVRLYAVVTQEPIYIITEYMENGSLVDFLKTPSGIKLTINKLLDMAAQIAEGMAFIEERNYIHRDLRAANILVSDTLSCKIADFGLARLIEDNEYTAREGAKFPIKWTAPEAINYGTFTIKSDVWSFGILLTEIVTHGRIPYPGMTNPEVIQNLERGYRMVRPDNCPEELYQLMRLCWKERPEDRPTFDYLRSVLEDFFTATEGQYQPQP

Regarding `O=P(O)(O)OC[C@H](O)CO` [G3P], the Kd result in experiment [1] is “BIAcore measurement of the interaction between G3P and the purified region”; in experiment [2] it was “we demonstrated the interaction of LCK and G3P using surface plasmon resonance (BIAcore) experiment”.
